From US12240853B2, “Compounds useful in HIV therapy” (GlaxoSmithKline Intellectual Property (No.2) Limited, priority 2019, dated 2025)

Legend:
[1] = test system: HIV pseudotyped virus, M184V; assay type: cell-based; details: U373 cells (CD4, CXCR4 or CCR5), luciferase signal after 3 days
[2] = test system: HIV pseudotyped virus (NL4-3 provirus, luciferase reporter), WT; test: PSV (pseudotyped virus) assay, WT; details: Human immunodeficiency virus 1, NL43, 72 h, read-out: WT IC50
Protocol: A pseudotyped virus assay (PSV) was used to assess the potency of the HIV inhibitor.
The PSV assay was performed by using U373 cells stably transformed to express human CD4, the primary receptor for HIV entry and either human CXCR4 or human CCR5 which are the co-receptors required for HIV entry as target cells for infection. […] This dose-range was applied to U373 cells and the pre-made pseudotyped virus added. The amount of luciferase signal produced after 3 days of culture was used to reflect the level of pseudotyped virus infection. An IC50, or the concentration of inhibitor required to reduce PSV infection by 50% from the infection containing no inhibitor was calculated. […] IC50 values were determined from a 10 point dose response curve using 3-4-fold serial dilution for each compound, which spans a concentration range>1000 fold.
These values are plotted against the molar compound concentrations using the standard four parameter logistic equation: y=((Vmax*x^n)/(K^n+x^n))+Y2

C#C[C@]1(COC(=O)C2CCCCC2)O[C@@H](n2cnc3c(N)nc(F)nc32)C[C@@H]1O [Example 1, ((2R,3S,5R)-5-(6-amino-2-fluoro-9H-purin-9-yl)-2-ethynyl-3-hydroxytetrahydrofuran-2-yl)methyl Cyclohexanecarboxylate]
IC50 [1]: 8 nM
IC50 [2]: 2 nM

C#C[C@]1(COC(=O)c2ccccc2)O[C@@H](n2cnc3c(N)nc(F)nc32)C[C@@H]1O [Example 2, ((2R,3S,5R)-5-(6-amino-2-fluoro-9H-purin-9-yl)-2-ethynyl-3-hydroxytetrahydrofuran-2-yl)methyl Benzoate]
IC50 [1]: 13 nM
IC50 [2]: 3 nM

C#C[C@]1(COC(=O)Cc2ccccc2)O[C@@H](n2cnc3c(N)nc(F)nc32)C[C@@H]1O [Example 3, [(2R,3S,5R)-5-(6-amino-2-fluoro-9H-purin-9-yl)-2-ethynyl-3-hydroxyoxolan-2-yl]methyl 2-phenylacetate]
IC50 [1]: 10 nM
IC50 [2]: 2 nM

C#C[C@]1(COC(=O)[C@H]2CC[C@H](C(C)(C)C)CC2)O[C@@H](n2cnc3c(N)nc(F)nc32)C[C@@H]1O [Example 4, ((2R,3S,5R)-5-(6-amino-2-fluoro-9H-purin-9-yl)-2-ethynyl-3-hydroxytetrahydrofuran-2-yl)methyl trans-4-(tert-butyl)cyclohexane-1 carboxylate]
IC50 [1]: 17 nM
IC50 [2]: 3 nM

C#C[C@]1(COC(=O)[C@H]2CC[C@H](CCCCC)CC2)O[C@@H](n2cnc3c(N)nc(F)nc32)C[C@@H]1O [Example 5, ((2R,3S,5R)-5-(6-amino-2-fluoro-9H-purin-9-yl)-2-ethynyl-3-hydroxytetrahydrofuran-2-yl)methyl trans-4-pentylcyclohexane-1-carboxylate]
IC50 [1]: 7 nM
IC50 [2]: 1 nM

C#C[C@]1(COC(=O)COCCOC)O[C@@H](n2cnc3c(N)nc(F)nc32)C[C@@H]1O [Example 6, ((2R,3S,5R)-5-(6-amino-2-fluoro-9H-purin-9-yl)-2-ethynyl-3-hydroxytetrahydrofuran-2-yl)methyl 2-(2-methoxyethoxy)acetate]
IC50 [1]: 25 nM
IC50 [2]: 4 nM

C#C[C@]1(COC(=O)COCCOCCOC)O[C@@H](n2cnc3c(N)nc(F)nc32)C[C@@H]1O [Example 7, ((2R,3S,5R)-5-(6-amino-2-fluoro-9H-purin-9-yl)-2-ethynyl-3-hydroxytetrahydrofuran-2-yl)methyl 2-(2-(2-methoxyethoxy)ethoxy)acetate]
IC50 [1]: 24 nM
IC50 [2]: 4 nM

C#C[C@]1(COC(=O)COCCOCCCC)O[C@@H](n2cnc3c(N)nc(F)nc32)C[C@@H]1O [Example 8, ((2R,3S,5R)-5-(6-amino-2-fluoro-9H-purin-9-yl)-2-ethynyl-3-hydroxytetrahydrofuran-2-yl)methyl 2-(2-butoxyethoxy)acetate]
IC50 [1]: 11 nM
IC50 [2]: 2 nM

C#C[C@]1(COC(=O)CCCCCCCCC(=O)O)O[C@@H](n2cnc3c(N)nc(F)nc32)C[C@@H]1O [Example 9, 10-(((2R,3S,5R)-5-(6-amino-2-fluoro-9H-purin-9-yl)-2-ethynyl-3-hydroxytetrahydrofuran-2-yl)methoxy)-10-oxodecanoic Acid]
IC50 [1]: 167 nM
IC50 [2]: 35 nM

C#C[C@]1(COC(=O)CCCCCCCCCCCCC(=O)O)O[C@@H](n2cnc3c(N)nc(F)nc32)C[C@@H]1O [Example 10, 14-(((2R,3S,5R)-5-(6-amino-2-fluoro-9H-purin-9-yl)-2-ethynyl-3-hydroxytetrahydrofuran-2-yl)methoxy)-14-oxotetradecanoic Acid]
IC50 [1]: 44 nM
IC50 [2]: 9 nM

C#C[C@]1(COC(=O)CCCCCCCCCCCCCCCCCCC(=O)O)O[C@@H](n2cnc3c(N)nc(F)nc32)C[C@@H]1O [Example 11, 20-(((2R,3S,5R)-5-(6-amino-2-fluoro-9H-purin-9-yl)-2-ethynyl-3-hydroxytetrahydrofuran-2-yl)methoxy)-20-oxoicosanoic Acid]
IC50 [1]: 37 nM
IC50 [2]: 8 nM

C#C[C@]1(COC(=O)CCCC(=O)OC(COC(=O)CCCCCC)COC(=O)CCCCCC)O[C@@H](n2cnc3c(N)nc(F)nc32)C[C@@H]1O [Example 12, ((2R,3S,5R)-5-(6-amino-2-fluoro-9H-purin-9-yl)-2-ethynyl-3-hydroxytetrahydrofuran-2-yl)methyl (1,3-bis(heptanoyloxy)propan-2-yl) glutarate]
IC50 [1]: 151 nM
IC50 [2]: 34 nM

C#C[C@]1(COC(=O)CCCC(=O)OC(COC(=O)CCCCCCCCCCCCC)COC(=O)CCCCCCCCCCCCC)O[C@@H](n2cnc3c(N)nc(F)nc32)C[C@@H]1O [Example 13, ((2R,3S,5R)-5-(6-amino-2-fluoro-9H-purin-9-yl)-2-ethynyl-3-hydroxytetrahydrofuran-2-yl)methyl 1,3-bis(tetradecanoyloxy)propan-2-yl) glutarate]
IC50 [1]: 3610 nM
IC50 [2]: 508 nM

C#C[C@]1(COC(=O)CCCC(=O)OCCCCCCCCCCCCCC)O[C@@H](n2cnc3c(N)nc(F)nc32)C[C@@H]1O [Example 14, ((2R,3S,5R)-5-(6-amino-2-fluoro-9H-purin-9-yl)-2-ethynyl-3-hydroxytetrahydrofuran-2-yl)methyl Tetradecyl Glutarate]
IC50 [1]: 148 nM
IC50 [2]: 33 nM

C#C[C@]1(COC(=O)CCCCCCCCC)O[C@@H](n2cnc3c(N)nc(F)nc32)C[C@@H]1OC(=O)OCC [Example 15, ((2R,3S,5R)-5-(6-amino-2-fluoro-9H-purin-9-yl)-3-((ethoxycarbonyl)oxy)-2-ethynyltetrahydrofuran-2-yl)methyl Decanoate]
IC50 [1]: 328 nM
IC50 [2]: 77 nM

C#C[C@]1(COC(=O)CCCCCC)O[C@@H](n2cnc3c(N)nc(F)nc32)C[C@@H]1OC(=O)CCCCCC [Example 16, (2R,3S,5R)-5-(6-amino-2-fluoro-9H-purin-9-yl)-2-ethynyl-2-((heptanoyloxy)methyl)tetrahydrofuran-3-yl Heptanoate]
IC50 [1]: 31 nM
IC50 [2]: 8 nM

C#C[C@]1(COC(=O)CCCCCCCCCCCCC)O[C@@H](n2cnc3c(N)nc(F)nc32)C[C@@H]1OC(=O)CCCCCCCCCCCCC [Example 17, (2R,3S,5R)-5-(6-amino-2-fluoro-9H-purin-9-yl)-2-ethynyl-2-((tetradecanoyloxy)methyl)tetrahydrofuran-3-yl Tetradecanoate]
IC50 [1]: 10300 nM
IC50 [2]: 1740 nM

C#C[C@]1(COC(=O)CCCC)O[C@@H](n2cnc3c(N)nc(F)nc32)C[C@@H]1OC(=O)CCCCCCCCCCCC [Example 19, (2R,3S,5R)-5-(6-amino-2-fluoro-9H-purin-9-yl)-2-ethynyl-2-((pentanoyloxy)methyl)tetrahydrofuran-3-yl Tridecanoate]
IC50 [1]: 87 nM
IC50 [2]: 18 nM

C#C[C@]1(COC(=O)CCCC)O[C@@H](n2cnc3c(N)nc(F)nc32)C[C@@H]1OC(=O)CCCCCC [Example 20, (2R,3S,5R)-5-(6-amino-2-fluoro-9H-purin-9-yl)-2-ethynyl-2-((pentanoyloxy)methyl)tetrahydrofuran-3-yl Heptanoate]
IC50 [1]: 25 nM
IC50 [2]: 5 nM

C#C[C@]1(COC(=O)CCCC)O[C@@H](n2cnc3c(N)nc(F)nc32)C[C@@H]1OC(=O)CCCCCCCCCC [Example 21, (2R,3S,5R)-5-(6-amino-2-fluoro-9H-purin-9-yl)-2-ethynyl-2-((pentanoyloxy)methyl)tetrahydrofuran-3-yl Undecanoate]
IC50 [1]: 44 nM
IC50 [2]: 7 nM

C#C[C@]1(COC(=O)CCCC)O[C@@H](n2cnc3c(N)nc(F)nc32)C[C@@H]1OC(=O)CCCCCCCC [Example 22, (2R,3S,5R)-5-(6-amino-2-fluoro-9H-purin-9-yl)-2-ethynyl-2-((pentanoyloxy)methyl)tetrahydrofuran-3-yl Nonanoate]
IC50 [1]: 35 nM
IC50 [2]: 7 nM

C#C[C@]1(COC(=O)CCCC)O[C@@H](n2cnc3c(N)nc(F)nc32)C[C@@H]1OC(=O)CCCC [Example 23, (2R,3S,5R)-5-(6-amino-2-fluoro-9H-purin-9-yl)-2-ethynyl-2-((pentanoyloxy)methyl)tetrahydrofuran-3-yl Pentanoate]
IC50 [1]: 68 nM
IC50 [2]: 11 nM

C#C[C@]1(COC(=O)CCCC)O[C@@H](n2cnc3c(N)nc(F)nc32)C[C@@H]1OC(=O)CC [Example 24, ((2R,3S,5R)-5-(6-amino-2-fluoro-9H-purin-9-yl)-2-ethynyl-3-(propionyloxy)tetrahydrofuran-2-yl)methyl Pentanoate]
IC50 [1]: 351 nM
IC50 [2]: 66 nM

C#C[C@]1(COC(=O)CCCC)O[C@@H](n2cnc3c(NC(=O)CCC)nc(F)nc32)C[C@@H]1O [Example 25, ((2R,3S,5R)-5-(6-butyramido-2-fluoro-9H-purin-9-yl)-2-ethynyl-3-hydroxytetrahydrofuran-2-yl)methyl Pentanoate]
IC50 [1]: 186 nM
IC50 [2]: 21 nM

C#C[C@]1(COC(=O)CCCC)O[C@@H](n2cnc3c(NC(=O)CCCCCCC)nc(F)nc32)C[C@@H]1O [Example 26, ((2R,3S,5R)-2-ethynyl-5-(2-fluoro-6-octanamido-9H-purin-9-yl)-3-hydroxytetrahydrofuran-2-yl)methyl Pentanoate]
IC50 [1]: 28 nM
IC50 [2]: 7 nM

C#C[C@]1(COC(=O)CCCC)O[C@@H](n2cnc3c(NC(=O)CCCCCCCCCCCCC)nc(F)nc32)C[C@@H]1O [Example 27, ((2R,3S,5R)-2-ethynyl-5-(2-fluoro-6-tetradecanamido-9H-purin-9-yl)-3-hydroxytetrahydrofuran-2-yl)methyl Pentanoate]
IC50 [1]: 46 nM
IC50 [2]: 8 nM

C#C[C@]1(COC(=O)CCCC)O[C@@H](n2cnc3c(NC(=O)CCCCCCCCCCC)nc(F)nc32)C[C@@H]1O [Example 28, ((2R,3S,5R)-5-(6-dodecanamido-2-fluoro-9H-purin-9-yl)-2-ethynyl-3-hydroxytetrahydrofuran-2-yl)methyl Pentanoate]
IC50 [1]: 26 nM
IC50 [2]: 6 nM

C#C[C@]1(COC(=O)C(CCC)CCC)O[C@@H](n2cnc3c(N)nc(F)nc32)C[C@@H]1OC(=O)CCCCCCCCCCC [Example 29, (2R,3S,5R)-5-(6-amino-2-fluoro-9H-purin-9-yl)-2-ethynyl-2-(((2-propylpentanoyl)oxy)methyl)tetrahydrofuran-3-yl Dodecanoate]
IC50 [1]: 1350 nM
IC50 [2]: 238 nM
